Assay results as given in US20220000957A1, “COMPOSITION FOR ALLEVIATING SYMPTOMS OF ANDROPAUSE, CONTAINING EXTRACT OF FICUS AURICULATA LOUR. AS ACTIVE INGREDIENT” (KOREA RESEARCH INSTITUTE OF BIOSCiENCE AND BIOTECHNOLOGY, priority 2018, published 2022).
Values joined by “and” are separate entries in the source; they are usually repeats but may differ in a detail not shown here. Equal values may be shown once.

Assays:
[1] = tested on: prostate-specific antigen (PSA); assay: Inhibition of testosterone-induced prostate-specific antigen (PSA) expression in LNCaP cells, real-time RT-PCR; type: cell-based; settings: testosterone 100 nM, 24 hours, no extract
Protocol: Reverse transcription-real-time polymerase chain reaction (real-time RT-PCR) was used to measure the inhibition of expression of prostate-specific antigen (PSA) in testosterone-induced prostate cancer cell lines (LNCaP cells). Specifically, the prostate cancer cell line (LNCaP cells) was dispensed to a 6 well plate at 5×10^5 cells/well. After incubating for 24 hours in an incubator under conditions of 37° C. and 5% CO2, Ficus auriculata Lour. fruit extract of each country of origin (Vietnam, Nepal, Myanmar, Bangladesh, China, Laos) was added at 100 μg/ml and incubated for 3 hours. Testosterone 100 nM was added to each well except for the control and incubated for 24 hours. After incubation for 24 hours, the supernatant was removed, total RNA was extracted using Trizol, and cDNA was synthesized using PrimeScript RT Master Mix (Takara, Japan). The synthesized cDNA was subjected to real-time polymerase chain reaction using TOPreal qPCR 2×PreMIX (Enzynomics, Korea).
Reverse transcription-real-time polymerase chain reaction (real-time RT-PCR) was used to measure the inhibition of expression of prostate-specific antigen (PSA) in testosterone-induced prostate cancer cell lines (LNCaP cells). Specifically, the prostate cancer cell line (LNCaP cells) was dispensed to a 6 well plate at 5×10^5 cells/well. […]

[2] = tested on: androgen receptor (AR); assay: Androgen receptor (AR) expression in LNCaP cells, real-time RT-PCR; type: cell-based; settings: no extract

`C[C@]12CC[C@H]3[C@@H](CCC4=CC(=O)CC[C@@]43C)[C@@H]1CC[C@@H]2O` [testosterone] was tested, and the “PSA expression increased by testosterone” value [1] was 190% and 180% and the “expression of AR increased by testosterone” value [2] was 140%.
